According to paper PMC5945292 (Biochemistry, 2013):

Tests used:
Assay type in all cases: binding
cytochrome P450 BM-3 [1] = biological target: cytochrome P450 BM-3 (Priestia megaterium, UniProt P14779, R48Q); assay: spectral
cytochrome P450 BM-3 [2] = biological target: cytochrome P450 BM-3 (Priestia megaterium, UniProt P14779, R48K); assay: spectral
cytochrome P450 BM-3 [3] = biological target: T1, cytochrome P450 BM-3 (Priestia megaterium, UniProt P14779); assay: crystal structure at […] Å
T1 sequence (P14779 1-1049): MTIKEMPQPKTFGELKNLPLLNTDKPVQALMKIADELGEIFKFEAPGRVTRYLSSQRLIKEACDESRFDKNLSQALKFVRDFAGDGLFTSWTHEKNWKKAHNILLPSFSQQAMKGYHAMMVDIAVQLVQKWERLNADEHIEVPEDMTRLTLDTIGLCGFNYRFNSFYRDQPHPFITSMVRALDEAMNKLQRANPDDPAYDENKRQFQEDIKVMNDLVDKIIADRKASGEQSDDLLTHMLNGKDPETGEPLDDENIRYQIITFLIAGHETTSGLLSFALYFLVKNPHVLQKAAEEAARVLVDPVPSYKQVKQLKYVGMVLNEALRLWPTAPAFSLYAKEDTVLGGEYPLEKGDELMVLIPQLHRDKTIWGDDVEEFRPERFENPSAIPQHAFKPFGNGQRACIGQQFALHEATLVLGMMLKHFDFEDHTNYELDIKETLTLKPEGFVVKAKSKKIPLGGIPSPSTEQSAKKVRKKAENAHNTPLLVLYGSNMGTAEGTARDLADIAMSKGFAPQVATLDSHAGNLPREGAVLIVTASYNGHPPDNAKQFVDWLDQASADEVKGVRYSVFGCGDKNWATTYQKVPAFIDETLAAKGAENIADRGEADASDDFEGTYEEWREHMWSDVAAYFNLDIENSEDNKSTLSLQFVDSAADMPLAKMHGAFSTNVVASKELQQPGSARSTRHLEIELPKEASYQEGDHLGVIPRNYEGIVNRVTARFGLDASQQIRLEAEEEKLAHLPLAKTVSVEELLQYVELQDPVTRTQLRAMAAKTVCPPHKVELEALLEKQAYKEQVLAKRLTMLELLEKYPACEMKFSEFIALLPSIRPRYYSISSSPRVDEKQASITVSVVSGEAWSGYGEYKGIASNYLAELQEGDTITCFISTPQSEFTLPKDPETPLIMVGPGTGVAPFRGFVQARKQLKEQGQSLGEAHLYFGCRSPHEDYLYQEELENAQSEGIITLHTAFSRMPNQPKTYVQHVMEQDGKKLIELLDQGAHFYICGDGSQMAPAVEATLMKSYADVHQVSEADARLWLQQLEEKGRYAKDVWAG

Sequence of cytochrome P450 BM-3 (Priestia megaterium, UniProt P14779, R48K) (P14779 whole entry R48K): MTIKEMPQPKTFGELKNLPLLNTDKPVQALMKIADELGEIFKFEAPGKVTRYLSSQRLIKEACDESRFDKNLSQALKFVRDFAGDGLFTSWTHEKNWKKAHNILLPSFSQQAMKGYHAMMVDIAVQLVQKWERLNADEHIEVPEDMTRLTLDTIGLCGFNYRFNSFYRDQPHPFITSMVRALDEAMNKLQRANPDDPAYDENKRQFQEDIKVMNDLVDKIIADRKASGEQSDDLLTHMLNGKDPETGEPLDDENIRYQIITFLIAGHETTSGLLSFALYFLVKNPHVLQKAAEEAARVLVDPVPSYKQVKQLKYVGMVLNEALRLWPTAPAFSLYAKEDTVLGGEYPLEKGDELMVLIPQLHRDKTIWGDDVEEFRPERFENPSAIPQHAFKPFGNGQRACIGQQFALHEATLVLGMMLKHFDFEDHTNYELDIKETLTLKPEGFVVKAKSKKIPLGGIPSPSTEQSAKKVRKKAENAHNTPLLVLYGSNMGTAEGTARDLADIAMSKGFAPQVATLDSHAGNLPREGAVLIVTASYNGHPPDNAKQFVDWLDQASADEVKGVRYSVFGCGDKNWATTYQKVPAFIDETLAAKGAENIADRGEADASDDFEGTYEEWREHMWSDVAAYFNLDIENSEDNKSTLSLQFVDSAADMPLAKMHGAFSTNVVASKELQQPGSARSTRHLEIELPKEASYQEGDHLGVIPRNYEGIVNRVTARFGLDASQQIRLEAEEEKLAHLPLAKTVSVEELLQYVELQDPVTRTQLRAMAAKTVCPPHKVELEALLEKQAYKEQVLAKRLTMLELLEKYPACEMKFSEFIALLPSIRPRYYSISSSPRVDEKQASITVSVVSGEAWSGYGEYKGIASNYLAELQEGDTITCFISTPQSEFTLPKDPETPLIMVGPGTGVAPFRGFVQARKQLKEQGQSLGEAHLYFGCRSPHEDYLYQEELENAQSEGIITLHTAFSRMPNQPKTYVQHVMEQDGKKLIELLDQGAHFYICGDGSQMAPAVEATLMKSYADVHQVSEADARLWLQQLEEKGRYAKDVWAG
Sequence of cytochrome P450 BM-3 (Priestia megaterium, UniProt P14779, R48Q) (P14779 whole entry R48Q): as the sequence (P14779 whole entry R48K) above, with K48Q counted along it

CCCCCCCCCCCCCCCC(=O)NCC(=O)O [NPG, N-palmitoylglycine]
Kd (cytochrome P450 BM-3 [1]): 7 ± 0.7 µM
Kd (cytochrome P450 BM-3 [2]): 1200 ± 100 nM
Kd (cytochrome P450 BM-3 [3]): 370 ± 50 nM
